# Assay results from ChEMBL document CHEMBL4840339, “A naphthyridine-indole ligand for selective stabilization of G-quadruplexes and conformational conversion of hybrid topology” (Bioorg Med Chem, 2021).
# Active and inactive are the calls of the source. The calls are words filed in the database; no cut-off is given here.
# Key:
# HeLa [1] = test: Induction of apoptosis in human HeLa cells assessed as necrotic cells at 6 uM after 24 hrs by Annexin V-FITC/PI staining based flow cytometric analysis (reference value: 0.42 %); type: functional
# Quadruplex DNA [2] = test: Stabilization of Tel26 G4 quadruplex DNA (unknown origin) assessed as thermal stability by measuring increase in melting temperature by UV melting assay; type: nucleic-acid assay; conditions: dose 5.0 µM
# HeLa [3] = test: Induction of apoptosis in human HeLa cells assessed as early apoptotic cells at 6 uM after 24 hrs by Annexin V-FITC/PI staining based flow cytometric analysis (reference value: 3.28 %); type: functional
# Quadruplex DNA [4] = test: Binding affinity to ds26 non-G4 DNA (unknown origin) assessed as conversion from hybrid topology to parallel topology by measuring positive signal at 266 nm at 10 to 100 uM by circular dichroism spectroscopy; type: nucleic-acid assay; conditions: dose 10-100 µM
# Quadruplex DNA [5] = test: Binding affinity to Tel26 G4 quadruplex DNA (unknown origin) assessed as conversion from hybrid topology to parallel topology by measuring positive signal at 266 nm at 10 to 100 uM by circular dichroism spectroscopy; type: nucleic-acid assay; conditions: dose 10-100 µM
# Quadruplex DNA [6] = test: Stabilization of Tel26 G4 quadruplex DNA (unknown origin) assessed as thermal stability by measuring increase in melting temperature at 100 uM by variable temperature circular dichroism spectroscopy; type: nucleic-acid assay
# Quadruplex DNA [7] = test: Binding affinity to c-KIT1 G4 quadruplex DNA (unknown origin) assessed as conversion from hybrid topology to parallel topology by measuring positive signal at 266 nm at 10 to 100 uM by circular dichroism spectroscopy; type: nucleic-acid assay; conditions: dose 10-100 µM
# HeLa [8] = test: Cytotoxicity against human HeLa cells assessed as […] in cell viability measured after 48 hrs by MTT assay; type: functional, cell-based
# Quadruplex DNA [9] = test: Stabilization of F-Tel21-T G4 quadruplex DNA (unknown origin) assessed as thermal stability by measuring normalized intensity in presence of 10 to 50 eq dsDNA at 2 uM by FRET-based competition assay; type: nucleic-acid assay
# HeLa [10] = test: Induction of cell cycle arrest in human HeLa cells assessed as S cell population level at 6 uM incubated for 24 hrs by propidium iodide /RNase staining based flow cytometry (reference value: 36 %); type: functional
# Quadruplex DNA [11] = test: Stabilization of F-Tel21-T G4 quadruplex DNA (unknown origin) assessed as thermal stability by measuring normalized intensity at 2 uM by FRET assay; type: nucleic-acid assay
# Quadruplex DNA [12] = test: Stabilization of G4 quadruplex DNA in human HeLa cells assessed as BG4 foci formation at 6 uM measured after 24 hrs by confocal microscopic analysis; type: cell-based
# HeLa [13] = test: Induction of cell cycle arrest in human HeLa cells assessed as G2/M cell population level at 6 uM incubated for 24 hrs by propidium iodide /RNase staining based flow cytometry (reference value: 36 %); type: functional
# HeLa [14] = test: Induction of apoptosis in human HeLa cells assessed as viable cells at 6 uM after 24 hrs by Annexin V-FITC/PI staining based flow cytometric analysis (reference value: 95.8 %); type: functional; conditions: read-out: Activity
# HeLa [15] = test: Induction of apoptosis in human HeLa cells assessed as late apoptotic cells at 6 uM after 24 hrs by Annexin V-FITC/PI staining based flow cytometric analysis (reference value: 0.42 %); type: functional
# HeLa [16] = test: Induction of cell cycle arrest in human HeLa cells assessed as G0/1 cell population level at 6 uM incubated for 24 hrs by propidium iodide /RNase staining based flow cytometry (reference value: 38 %); type: functional
# Quadruplex DNA [17] = test: Binding affinity to Tel23 G4 quadruplex DNA (unknown origin) assessed as conversion from hybrid topology to parallel topology by measuring positive signal at 266 nm at 10 to 100 uM by circular dichroism spectroscopy; type: nucleic-acid assay; conditions: dose 10-100 µM
# Quadruplex DNA [18] = test: Binding affinity to Tel26 G4 quadruplex DNA (unknown origin) assessed as positive signal at 266 nm measured up to 90 deg C at 100 uM by variable temperature circular dichroism spectroscopy; type: nucleic-acid assay
# HeLa [19] = test: Induction of apoptosis in human HeLa cells assessed as increase in caspase 3 level at 4 to 6 uM measured after 48 hrs; type: functional, cell-based; conditions: dose 4-6 µM
# Quadruplex DNA [20] = test: Binding affinity to Bcl-2 G4 quadruplex DNA (unknown origin) assessed as conversion from hybrid topology to parallel topology by measuring positive signal at 266 nm at 10 to 100 uM by circular dichroism spectroscopy; type: nucleic-acid assay; conditions: dose 10-100 µM
# dsDNA = test: Stabilization of dsDNA (unknown origin) assessed as thermal stability by measuring increase in melting temperature by UV melting assay; type: nucleic-acid assay
# Quadruplex DNA [21] = test: Binding affinity to G4 quadruplex DNA (unknown origin) assessed as assessed as compound-DNA complex formation by 1H-NMR spectra analysis; type: nucleic-acid assay
# Quadruplex DNA [22] = test: Binding affinity to c-MYC G4 quadruplex DNA (unknown origin) assessed as conversion from hybrid topology to parallel topology by measuring positive signal at 266 nm at 10 to 100 uM by circular dichroism spectroscopy; type: nucleic-acid assay; conditions: dose 10-100 µM
# Quadruplex DNA [23] = test: Displacement of thiazole orange from Tel26 G4 quadruplex DNA (unknown origin) assessed as relative affinity by fluorescent intercalator displacement assay; type: nucleic-acid assay
smiles,measurement,setting,value
CN(C)CCOc1ccc2c(ccn2-c2ccc3ccc(-n4ccc5cc(OCCN(C)C)ccc54)nc3n2)c1,Activity,HeLa [1],1.49%
same,Activity,Quadruplex DNA [2],Active
same,Activity,HeLa [3],20.1%
same,Activity,Quadruplex DNA [4],inactive
same,Activity,Quadruplex DNA [5],Active
same,ΔTm,Quadruplex DNA [6],37 °C
same,Activity,Quadruplex DNA [7],inactive
same,IC50,HeLa [8],4.3 µM
same,Activity,Quadruplex DNA [9],Active
same,Activity,HeLa [10],33%
same,Activity,Quadruplex DNA [11],Active
same,Activity,Quadruplex DNA [12],Active
same,Activity,HeLa [13],10%
same,viability at 6 µM,HeLa [14],61.8%
same,Activity,HeLa [15],16.6%
same,Activity,HeLa [16],57%
same,Activity,Quadruplex DNA [17],Active
same,Activity,Quadruplex DNA [18],Active
same,Activity,HeLa [19],Active
same,Activity,Quadruplex DNA [20],Active
same,Activity,dsDNA,inactive
same,Activity,Quadruplex DNA [21],Active
same,Activity,Quadruplex DNA [22],inactive
same,IC50,Quadruplex DNA [23],6.7 µM
